Data taken from patent US11073509B2, “Assays and methods for determining the responsiveness of an individual subject to a therapeutic agent” (Celcuity Inc., priority 2013, dated 2021).
Where two headings read alike, the source gives them in different places.

Columns and labels:
[1] = test system: Patient C2 colon cancer cells; assay: CELx Combination test, impedance biosensor CReMS; format: cell-based, human; details: Patient C2 cells (printed Patient 2), single drug
Procedure: Cells: Colon cancer cells from Patients C1 and C2 were utilized and handled in the same manner as described in Example 1.
Procedure: Between 6,000-12,000 cells in each well were seeded into the impedance microplate containing 120 uL settling media with serum. The solution was replaced with media containing no serum to synchronize the cells with respect to physiologic state. […] The CReMS recording of physiologic change was maintained continuously from when the cells were first seeded on the microplate through complete cellular response, which was between 48-72 hours. The test was performed at 37° C., 5% CO2 and at 75% relative humidity.

[2] = test system: Patient B2 breast cancer cells; assay: CELx Anti-Proliferative test, impedance biosensor CReMS; format: cell-based, human
Procedure: (§1) The physiologic change of the B1 and B2 cells during the test was measured with an impedance biosensor CReMS and the output from the CReMS is recorded in FIGS. 2A and 2B. The comparison of the CELx test results and the third party clinical reference is recorded in FIG. 2C.
(§2) CReMS, microplate, reagents, and buffers: The CReMS, microplate, reagents, and buffers used in Example 1 are the same as those employed in Example 2, except for the therapeutic agent tested. […] Paclitaxel was purchased from Selleck Chemicals (TX, USA).
(§3) Cells: Breast Cancer cells from Patients B1 and B2 were utilized and handled in the same manner as described in Example 1.
(§4) Procedure: Between 6,000-12,000 cells in each well were seeded onto the impedance microplate containing 120 uL settling media with serum. […] The CReMS recording of physiologic change was maintained continuously from when the cells were first seeded on the microplate through complete cellular response, which was between 48-72 hours. The test was performed at 37° C., 5% CO2 and at 75% relative humidity.

[3] = test system: Patient B1 breast cancer cells; assay: as above; format: cell-based, human
Procedure: as §1, §2, §3, §4

[4] = test system: Patient B1 cells (HER2 overexpressing breast cancer); assay: CELx Pathway Shutdown test, impedance biosensor CReMS, EGF stimulation; format: cell-based, human
Source text: (§5) CReM and microplate: A 4″×6″, 96-well impedance microplate was placed into a Roche Applied Science (Indianapolis, Ind.) xCELLigence SP impedance biosensor designed to maintain constant voltage while measuring simultaneously the impedance of every well. The change in impedance for a particular well is proportional to the number of cells and type of attachment the cells have with the impedance microplate. Changes in impedance indicate a response to perturbation of these small cell populations.
(§6) Cells: Cells from Patient B1 and B4 were utilized. […] Prior to addition to the impedance microplate, the cells were removed from their growth container with versene, counted, and re-suspended in media without serum or other growth factors.
(§7) Buffers and reagents: Standard media, serum, antibiotics (e.g. penicillin, streptomycin), and other buffers were purchased and used as delivered from ATCC (Manassas, Va., USA) or Life Technologies (Grand Island, N.Y.). Additional growth factor (mature human EGF ca6KDa) was purchased from R&D Systems (Minneapolis, Minn.) and prepared in buffered cell media without growth factors or serum.
(§8) Procedure: Between 6,000-12,000 cells in each well were seeded onto the impedance microplate containing 120 uL standard media with serum. The solution was replaced with media containing no serum to synchronize the cells with respect to physiologic state and pathway stimulation. Twenty microliters of drugs were added to the no-serum media two hours in advance of pathway stimulation.

[5] = test system: Patient B4 cells (HER2 overexpressing breast cancer); assay: as above; format: cell-based, human
Source text: as §5, §6, §7, §8

[6] = cited from earlier work
[7] = test system: patient breast cancer cell sample; assay: CELx Pathway Shutdown single drug test (Example 4), impedance biosensor CReMS; format: cell-based, human; details: one patient breast cancer cell sample expected to be a responder
Procedure: The physiologic change of the cells and drugs tested was measured with an impedance biosensor CReMS and the summary output from the CReMS is recorded in FIG. 4.
Cells: Cells from Patients B1, B2, B3, B4, B5, B6, B7, C1, C2, L1, and L2 were utilized and handled in the same manner as described in Example 1.
In those experiments involving a combination of drugs, the procedures described in Example 3 were utilized. The list of patient cells and the drug tested with the cells is characterized in FIG. 4.

In the case of `CCc1c2c(nc3ccc(OC(=O)N4CCC(N5CCCCC5)CC4)cc13)-c1cc3c(c(=O)n1C2)COC(=O)[C@]3(O)CC` [irinotecan, Irinotecan], the “responsiveness to the individual drug” value [1] is reported as “responsive”.

With `CC(=O)O[C@H]1C(=O)[C@@]2(C)[C@H]([C@H](OC(=O)c3ccccc3)[C@]3(O)C[C@H](OC(=O)[C@H](O)[C@@H](NC(=O)c4ccccc4)c4ccccc4)C(C)=C1C3(C)C)[C@]1(OC(C)=O)CO[C@@H]1C[C@@H]2O` [paclitaxel, Paclitaxel] the “CELx test prediction of patient response” value ([2]; Patient B2) was “will respond”, the “time after which the CReM output reverses (test cells begin proliferating, no longer responsive)” value ([2]; Patient B2 cells) was “roughly 24 hours” and the “responsiveness of test cells (decrease in CReM output compared to control cells)” value ([2]; Patient B2 cells, continuous recording 48-72 hours) was “initial responsiveness”. The “CELx test prediction of patient response” value ([3]; Patient B1) was “will respond” and the “responsiveness of test cells (decrease in CReM output compared to control cells)” value ([3]; Patient B1 cells, continuous recording 48-72 hours) was “immediate and continuous responsiveness”.

With `CS(=O)(=O)CCNCc1ccc(-c2ccc3ncnc(Nc4ccc(OCc5cccc(F)c5)c(Cl)c4)c3c2)o1` [lapatinib, Lapatinib] the “CELx test prediction of patient response” value ([4]; Patient B1) was “will respond”, the “change (decrease) of cell index of test cells after drug” value ([4]; Patient B1 cells, pathway stimulated with receptor ligand (EGF), vs stimulated cells without drug) was “over 50%” and the “CELx test prediction of patient response” value [5] was “would respond”. For the same molecule, the “patient responsiveness recorded by clinical reference standard” value ([6]; Patient B1) was “responsive” and the “patient responsiveness recorded by clinical reference standard” value ([6]; Patient B4) was “responsive”.

For `COc1cc2ncnc(Nc3ccc(F)c(Cl)c3)c2cc1OCCCN1CCOCC1` [gefitinib], the “response in the CReMS testing” value [7] was “did not show a response”.
